Biological target: T1, MtbTrmD (Mycobacterium tuberculosis, UniProt P9WFY7)
T1 sequence (P9WFY7 1-230): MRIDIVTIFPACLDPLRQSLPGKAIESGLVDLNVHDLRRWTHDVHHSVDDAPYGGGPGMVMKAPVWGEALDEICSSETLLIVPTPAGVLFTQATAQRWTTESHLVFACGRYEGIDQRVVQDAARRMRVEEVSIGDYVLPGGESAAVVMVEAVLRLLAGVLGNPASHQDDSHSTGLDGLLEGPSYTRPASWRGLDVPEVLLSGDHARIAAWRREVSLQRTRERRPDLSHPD
Experiment: Surface plasmon resonance
Type: binding
Conditions: SPR

CCCCCCCCNCc1ccc(CNC(=O)c2csc3nc[nH]c(=O)c23)cc1 [Compound 15, N-(4-((Octylamino)methyl)benzyl)-4-oxo-3,4-dihydrothieno[2,3-d]pyrimidine-5-carboxamide]
lower affinity for MtbTrmD compared to the PaTrmD binding affinity: over 100 fold
